The source of these data is patent US5912258A, “Thiadiazoleamide derivative and anti-ulcer drug” (Shiseido Co., Ltd., priority 1998, dated 1999).

SMILES strings stand for the structures.

Data set [1] deals with stress ulcer formation. Nature of the data set: WIS: Restraint and Water Immersion Stress-Induced Ulcer Inhibition Test. The note with it: for WIS: ulcer formation inhibitory rate: rat, 100 mg/kg orally, 7 hours water immersion stress. It counts as in vivo, Male Crj:SD or Slc:SD rats. Here is the method:
WIS: Restraint and Water Immersion Stress-Induced Ulcer Inhibition Test (i) Meaning The degree of inhibition of the stress ulcer formation is tested. (ii) Method Male Crj:SD or Slc:SD rats (6 to 7-weeek-old) were fasted overnight, but allowed free access to water. Each group has 5 to 8 of these rats. The sample compound was dissolved or suspended in an aqueous solution of 0.3% sodium carboxymethylcellulose or 0.05% Tween 80 and then was orally administered (100 mg/10 ml/kg). To a control group, the vehicle was administered. 10 minutes later, the rats were placed in a stress cage and immersed to the level of xiphoid process in a water bath (21° C.) for 7 hours. At the end of the stress, the rats were sacrificed by inhalation of ether or carbon dioxide. Then, the stomach of each was removed, inflated by injecting 10 ml of 5% formalin neutral buffer solution, and immersed in 1% formalin neutral buffer solution for 30 minutes or more to be fixed. The stomach was incised along the greater curvature and then the length of each erosion in the glandular portion was determined under dissecting microscope. The sum of the length of erosions per stomach was defined as ulcer index (UI). (iii) Judgment Standard […]

In data set [2] the test system is isolated gastric fundic gland. Nature of the data set: CAP: Acid Secretion Inhibition Test in vitro ([^14 C]-aminopyrine uptake). It counts as cell-based, male Japanese White rabbit. To be noted: rabbit isolated gastric fundic gland, 10^-5 M, histamine 10^-5 M; for inhibition at 10 µM: Oryctolagus cuniculus, read-out: CAP: Acid secretion inhibitory rate. On the procedure:
CAP: Acid Secretion Inhibition Test in vitro (i) Meaning The acid secretion inhibitory activity in a cell level is studied. It can also be used for studying the mechanism of the effect. (ii) Method (ii)-(a) Preparation of isolated gastric gland suspension First, an isolated gastric fundic gland sample was prepared. Namely, a male Japanese White rabbit (2.5 to 3 kg) was anesthetized to death with Nembutal™ and then the abdomen was incised. Immediately thereafter, the stomach was removed and, after its pyloric and cardiac antrum were severed, incised along its greater curvature into two sheets. The gastric contents adhering to the mucosal surface was washed out with ice-cooled PBS (-) and then carefully washed therein. The gastric wall was spread on a cork board with its mucosal surface facing up and the feed and mucus thereon were completely removed with sterile gauze. The mucosa was separated therefrom by a spatula and then collected in ice-cooled PBS (-). After being washed twice with PBS (-), the mucosa was minced into 2-3 mm^3 pieces by scissors. These pieces were further washed twice with a nutrient solution. The nutrient solution comprises 132.4 mM of NaCl, 5.4 mM of KCl, 5 mM of Na2 HPO4 ·12H2 O, 1 mM of NaH2 PO4 ·2H2 O, 1.2 mM of MgSO4, 1 mM of CaCl2, 25 mM of HEPES, 2 mg/ml of glucose, and 1 mg/ml of BSA. Into 70 ml of the nutrient solution containing 1 mg/ml of collagenase, minced mucosal pieces were dispersed and intensely stirred in a conical flask with a stirrer at 37° C. for 40 to 60 minutes. […] The nutrient solution was added to the reaction solution so as to attain the total amount of about 200 ml. After being filtered through a mesh, the suspension was divisionally introduced into 50 ml centrifuge tubes and left for 15 minutes such that gastric fundic gland was deposited. The supernatant was repeatedly removed by an aspirator, dispersed in the nutrient solution, and then left such that the gastric fundic gland was washed three times. At this time, without using a pipette, the suspension was alternately introduced into two centrifuge tubes so as to effect dispersion. The number of cells was counted under microscope and adjusted to 1.6×10^6 cells/ml. (ii)-(b) [^14 C]-aminopyrine uptake test Then [^14 C]-aminopyrine uptake test was performed. After an Eppendorf tube was weighed, 10 μl (final concentration: 10^-5 M) of histamine dissolved in the above-mentioned nutrient solution, 10 μl (final concentration: 10 ^-5 M) of the test compound dissolved in DMSO, and 10 μl (final concentration: 0.05 μCi/ml) of [^14 C]-aminopyrine diluted with the nutrient solution were introduced therein and then 970 μl of the isolated gastric fundic gland suspension prepared above were added thereto. Subsequently, this mixture was shaken at 37° C. for 40 minutes at 125 cycles/minute. After being centrifuged for 30 minutes 200 μl of its supernatant was collected into a mini-vial, while the rest was removed by an aspirator. The gland pellet was completely dried as the tube with its lid being opened was kept for one night in a drying oven at 80° C. and then the weight was determined at room temperature. Then 100 μl of 1N KOH was added thereto an the tube with its lid being closed was treated at 60° C. for 1 to 2 hours so as to dissolve the pellet. Then, the contents thereof were transferred to a mini-vial. Into the mini-vial containing the supernatant or gland pellet, 4 ml of Atomlite™ was added and then the radioactivity was measured by a liquid scintillation counter. Here, after the radioactivity of the gland pellet was corrected by using a sample in which 20 mM of NaSCN was added so as to cancel the hydrogen ion concentration gradient, the integration ratio of aminopyrine specifically trapped by the gland pellet was calculated. This experiment was performed in duplicate. (ii)-(c) Calculation of the accumulation rate of aminopyrine Here, its principle will be briefly explained. […]

Data set [3] deals with gastric corpus mucosa cells. Nature of the data set: MTT: Cell Damaging and Protecting Effect Test. To be noted: rabbit gastric mucosa cells, 10^-4 M, 4 hours; smaller value is better; 100 µM. It counts as cell-based, male Japanese White rabbit. The source says: (§1) MTT: Cell Damaging and Protecting Effect Test
(§2) It is confirmed that there is no toxicity in cell level. Those having toxicity in cell level are inappropriate as an anti-ulcer drug.
(§3) A male Japanese White rabbit (2.5 to 3 kg) was anesthetized to death by Nembutal™ and, immediately thereafter, its stomach was removed. The greater curvature of the stomach was incised so as to remove the stomach contents therefrom. After the mucosal surface was washed with HBSS (Hank's Balanced Salt Solution), the stomach in ice-cooled HBSS was transferred to a laboratory. Then, after the pyloric antrum was removed, the gastric corpus mucosa was separated by a spatula and then minced into 2 to 3 mm pieces in BME (Basal Medium Eagle). Thereafter, these pieces were shaken at 120 to 130 cycles/minute for 15 minutes at 37° C. in BME 60 ml containing 280 U/ml of dispase and 30 to 50 U/mil of collagenase. Here, the concentration of collagenase was appropriately changed for each lot in view of the state of cells. The pieces were washed twice with EBSS (Earle's Balanced Salt Solution) containing 1 mM of EDTA and then shaken in MEM (Minimum Essential Medium) containing 1 mM of EDTA at 37° C. for 5 minutes. Subsequently, they were shaken in the dispase and collagenase having the same concentrations as those mentioned above for 15 minutes so as to remove the supernatant and then further shaken at 37° C. for 50 to 60 minutes at 120 to 130 cycles/minute. Then, after being washed twice with HBSS, Ham F12 containing 2% of Ultrocer G™ was used to attain the concentration of 1×10^6 cells/ml. Thus formed suspension was dispensed in each well of a 96-well plate by 200 μl. The plate was incubated in the atmosphere composed of 5% CO2 and 95% air at 37° C. for three days so as to attain a confluent state and then subjected to MTT assay.
(§4) The sample compound was dissolved in DMSO so as to attain a concentration of 10^-2 M and then diluted with HBSS containing 2% of Ultrocer G™ so as to attain a final concentration of 10^-4 M. To each group, which 8 wells were used for, 10 μl of MTT reagent was added immediately after 100 μl of the medium in each well was exchanged for same volume of the resulting solution of the sample compound. After being incubated in an atmosphere composed of 5% CO2 and 95% air at 37° C. for 4 hours, thus formed solution was centrifuged and then its supernatant was discarded. Subsequently, 100 μl of 100% ethanol was added to the residue so as to dissolve MTT formazan. Then, the absorbance (OD: 570 to 630) was measured by a microplate reader. This method utilizes a phenomenon in which MTT is changed to MTT formazan only by mitochondria of living cells so as to change color.
(§5) The cell damaging or cell protecting effect of the sample compound at the final concentration of 10^-4 M was expressed as cell damaging rate (%) as follows:
(§6) cell damaging rate (%)={1-(absorbance in sample group/absorbance in control group)}×100
(§7) Accordingly, the smaller value is better in the cell damaging rate.

A short description of data set [4]: MTT: Cell Damaging and Protecting Effect Test. It counts as cell-based, male Japanese White rabbit. To be noted: rabbit, gastric mucosa cells, 10^-4 M, smaller value is better, read-out: MTT: cell damaging rate.
From the text: as §1, §2, §3, §4, §5, §6, §7

As for `CC(C)c1ccc(C(=O)Nc2nnc(SCCN(C(C)C)C(C)C)s2)cc1.Cl` [Example 3, 2-(4-isopropylbenzoyl)amino-5-diisopropylaminoethylthio-1,3,4-thiadiazole hydrochloride], the “WIS: ulcer formation inhibitory rate” value in data set [1] is reported as 96%. Further, the “CAP: Acid secretion inhibitory rate” value in data set [2] is listed as 104%. In addition, the “MTT: cell damaging rate” value in data set [3] is -75%.

`CCCSc1nnc(NC(=O)c2ccc(OC/C=C(\C)CCC=C(C)C)cc2)s1` [Example 16, 2-(4-geranyloxybenzoyl)amino-5-propylthio-1,3,4-thiadiazole]: in data set [1], the “WIS: ulcer formation inhibitory rate” value was found to be 53%. Further, the cytotoxicity at 4 h, 100 µM in data set [4] amounted to 14%.

With `CC(C)N(CCSc1nnc(NC(=O)c2ccc(C(C)(C)C)cc2)s1)C(C)C` [Example 5, 2-(4-tert-butylbenzoyl)amino-5-diisopropylaminoethylthio-1,3,4-thiadiazole], in data set [1], the “WIS: ulcer formation inhibitory rate” value amounted to 63%. In addition, the inhibition at 10 µM in data set [2] is 100%. Also, the cytotoxicity at 4 h, 100 µM in data set [4] was -19%.

With `CC(C)=CCC/C(C)=C/COc1ccc(C(=O)Nc2nnc(SCc3ccccc3)s2)cc1` [Example 18, 2-(4-geranyloxybenzoyl)amino-5-benzylthio-1,3,4-thiadiazole], the “WIS: ulcer formation inhibitory rate” value in data set [1] amounted to 32%. For the same compound, the cytotoxicity at 4 h, 100 µM in data set [4] was 18%.

Consider `CCN(CC)CCCSc1nnc(NC(=O)c2ccc(OC/C=C(\C)CCC=C(C)C)cc2)s1` [Example 11, 2-(4-geranyloxybenzoyl)amino-5-diethylaminopropylthio-1,3,4-thiadiazole], for which the “WIS: ulcer formation inhibitory rate” value in data set [1] was determined as 65%. The inhibition at 10 µM in data set [2] is 100%. Further, in data set [4], the cytotoxicity at 4 h, 100 µM amounted to 48%.

Turning to `CCN(CC)CCSc1nnc(NC(=O)c2ccc(NC(C)(C)C)cc2)s1` [Example 9, 2-(4-tert-butyaminobenzoyl)amino-5-diethylaminoethylthio-1,3,4-thiadiazole], the “WIS: ulcer formation inhibitory rate” value in data set [1] was 51%. The inhibition at 10 µM in data set [2] was determined as 2%. Also, the cytotoxicity at 4 h, 100 µM in data set [4] was -107%.

Consider `CC(C)=CCC/C(C)=C/COc1ccc(C(=O)Nc2nnc(SCCCN3CCCCC3)s2)cc1` [Example 13, 2-(4-geranyloxybenzoyl)amino-5-piperidinopropylthio-1,3,4-thiadiazole], for which, in data set [1], the “WIS: ulcer formation inhibitory rate” value was 51%. Besides, the inhibition at 10 µM in data set [2] was determined as 100%. Moreover, the cytotoxicity at 4 h, 100 µM in data set [4] was 41%.

Turning to `CC(C)=CCC/C(C)=C/COc1ccc(C(=O)Nc2nnc(SCC(C)C)s2)cc1` [Example 17, 2-(4-geranyloxybenzoyl)amino-5-isobutylthio-1,3,4-thiadiazole], in data set [1], the “WIS: ulcer formation inhibitory rate” value turned out to be 46%. The cytotoxicity at 4 h, 100 µM in data set [4] was -4%.

For the compound `CCN(CC)CCSc1nnc(NC(=O)c2ccc(OC(C)C)cc2)s1` [Example 7, 2-(4-isopropyloxybenzoyl)amino-5-diethylaminoethylthio-1,3,4-thiadiazole], the “WIS: ulcer formation inhibitory rate” value in data set [1] was 76%. In data set [2], the inhibition at 10 µM is 97%. The cytotoxicity at 4 h, 100 µM in data set [4] worked out at 46%.

Consider `CCN(CC)CCSc1nnc(NC(=O)c2ccc(OC(C)(C)C)cc2)s1` [Example 8, 2-(4-tert-butoxybenzoyl)amino-5-diethylaminoethylthio-1,3,4-thiadiazole], for which the “WIS: ulcer formation inhibitory rate” value in data set [1] was 66%. Also, the inhibition at 10 µM in data set [2] was found to be 99%. Also, the cytotoxicity at 4 h, 100 µM in data set [4] was -11%.

For the compound `CCN(CC)CCSc1nnc(NC(=O)c2cc(C(C)(C)C)cc(C(C)(C)C)c2)s1` [Example 6, 2-(3,5-di-tert-butylbenzoyl)amino-5-diethylaminoethylthio-1,3,4-thiadiazol], in data set [1] (WIS), the “anti-ulcer effect (in words)” value is recorded as “sufficient effects”. The “WIS: ulcer formation inhibitory rate” value in data set [1] worked out at 81%. Moreover, the inhibition at 10 µM in data set [2] came to 100%. The cytotoxicity at 4 h, 100 µM in data set [4] worked out at 58%.
